Data set [1] is described as follows: Weight change after IP or IN administration. Format: in vivo. The following applies: mice. Here is the method: The purpose of this example was to evaluate and compare the impact on weight following administration of an aminosterol such as Aminosterol 1436 to mice via IP or IN.
Mice were administered: (i) intraperitoneally 1 mg/kg or 10 mg/kg of Aminosterol 1436, (ii) intranasally 0.4 mg/kg of Aminosterol 1436, or (iii) a saline control administered IN. Weight of the mice was then measured for 10 days post-administration.

Data set [2] can be described thus: PK profile IN versus IV bolus. The class given is in vivo. The following applies: rat, 2 mg/kg IV bolus. From the text: Thus, the amount of aminosterol in the bloodstream is too low to account for the observed pharmacological effect. This means that when administered IN, an aminosterol is having a pharmacological effect via a mechanism other than via plasma concentration of the drug.

Data set [3] can be described thus: Brain distribution, food intake and body weight after IP or ICV administration. The class given is in vivo. The following applies: 10 and 40 μg ICV, 5 mg/kg IP. From the text:
The purpose of this example was to evaluate the in vivo distribution of the aminosterol Aminosterol 1436 following intraperitoneal administration (IP) and ICV administration, and to determine the impact the drug has on food intake and body weight when administered IP and ICV.
Additional data regarding in vivo distribution and the effect of the route of administration for an aminosterol is shown in FIG. 7.
This experiment is relevant as the areas of the brain where the aminosterol Aminosterol 1436 localized upon administration are known to control feeding behavior and appetite.

A short description of data set [4]: Intranasal pharmacokinetics in plasma. Format: in vivo, Sprague Dawley rats. Conditions: Sprague-Dawley, rat, in vivo. From the text:
The purpose of this example was to evaluate the in vivo distribution and function of aminosterols, such as Aminosterol 1436 and squalamine, following intranasal administration. This experiment relates to the amount of drug needed to obtain a therapeutic result, based on an IN route of administration. The results described below detail that aminosterols such as Aminosterol 1436 act at the level of the hypothalamus following in vivo administration, regardless of the route of administration.

Data set [5] is described as follows: Brain distribution of radiolabeled Aminosterol 1436 after IV or ICV administration. The class given is in vivo. Conditions: rats. From the text: The purpose of this example was to evaluate the in vivo distribution of Aminosterol 1436 following intracerebroventricular (ICV) and intravenous (IV) administration to rats. ICV injection is an invasive injection technique of substances directly into the cerebrospinal fluid in cerebral ventricles to bypass the blood brain barrier. The results described below detail how aminosterols such as Aminosterol 1436 localize in the brain following in vivo administration, regardless of the route of administration.
Radiolabeled Aminosterol 1436 was injected into rats by two different forms of administration: ICV and IV administration.

Structures are written as SMILES.

On to `CC(C)[C@@H](CC[C@@H](C)[C@H]1CC[C@H]2[C@@H]3[C@H](O)C[C@H]4C[C@@H](NCCCNCCCCNCCCN)CC[C@]4(C)[C@H]3CC[C@]12C)OS(=O)(=O)O` [Aminosterol 1436], for which the “weight change over 10 days” value in data set [1] (0.4 mg/kg IN) is listed as “decrease in the weight of the mice in an amount comparable to 10 mg/kg of intraperitoneally administered Aminosterol 1436”; in data set [1] (1 mg/kg IP), “compared similarly to the intranasally administered saline control”. The “exposure after IV bolus injection” value in data set [2] is 190 µg·h/mL. Further, the “effect on food intake over 10 days” value in data set [3] is “significant impact on food intake”. Besides, the “percent change in body weight” value in data set [3] is reported as “decrease in body weight”. The “blood levels after intranasal versus peripherally injected administration” value in data set [4] is 10 times. In data set [4] (0.5 mg/kg), the “AUC_% Extrap_obs” value came to 47.6%. In data set [4] (0.5 mg/kg), the AUClast/D came out at 18700 kg·ng·h/mL/mg. Moreover, the “site of localization in brain” value in data set [5] (ICV administration) is on record as “localized to the same regions of the brain”; in data set [5] (IV administration) it was “localized in the hypothalamus”.

Values taken from patent US20240277732A1, “COMPOSITIONS AND METHODS FOR TREATING BRAIN-GUT DISORDERS” (Enterin, Inc., priority 2018, published 2024).
